Measured values published in patent US12459974B2, “Bicyclic peptide ligands specific for Nectin-4” (priority 2018, dated 2025).
*1 amine or outer side, *2 acyl side, *3 side chain or, on linkers, in order; H or OH if unused. Where a SMILES comes first, the peptide text is derived from it. Bridges are numbered along the chain shown (N, C = ends). TATA = O=C(CC[*:1])N1CN(C(=O)CC[*:2])CN(C(=O)CC[*:3])C1

The compounds below were run against T1, human Nectin-4 (Homo sapiens, UniProt Q96NY8) (assay: Nectin-4 competition binding assay (fluorescence polarisation)). Conditions: not given.
T1 sequence (Q96NY8 32-510): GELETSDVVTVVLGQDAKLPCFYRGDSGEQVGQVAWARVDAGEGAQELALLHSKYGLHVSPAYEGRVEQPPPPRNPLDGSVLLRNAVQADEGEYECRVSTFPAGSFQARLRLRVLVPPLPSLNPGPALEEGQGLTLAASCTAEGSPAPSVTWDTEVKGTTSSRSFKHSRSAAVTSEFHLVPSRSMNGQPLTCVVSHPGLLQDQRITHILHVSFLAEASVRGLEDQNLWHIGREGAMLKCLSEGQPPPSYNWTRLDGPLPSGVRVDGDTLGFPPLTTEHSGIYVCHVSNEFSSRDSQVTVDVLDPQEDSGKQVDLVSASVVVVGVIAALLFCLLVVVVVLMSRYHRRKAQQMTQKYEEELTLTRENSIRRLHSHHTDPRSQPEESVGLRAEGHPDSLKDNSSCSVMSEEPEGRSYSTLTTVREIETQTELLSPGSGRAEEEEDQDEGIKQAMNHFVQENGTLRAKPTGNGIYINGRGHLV
How it was run: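 Ki derived by cubic-equation fit of mP data, with tracer peptide concentration, its Kd and Nectin-4 level as fixed inputs. Competition set up by adding 2-fold peptide dilutions (≤5% DMSO), then Nectin-4, then fluorescent peptide; polarisation measured as for direct binding.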

Compound | Ki [nM]
CC[C@H](C)[C@@H]1NC(=O)[C@@H]2CCCN2C(=O)[C@H](Cc2c[nH]c3ccccc23)NC(=O)[C@H](CO)NC(=O)[C@H](Cc2c[nH]c3ccccc23)NC(=O)[C@H](CC(=O)O)NC(=O)[C@H](CCCCN)NC(=O)[C@H](CCSC)NC(=O)[C@@H]2CSCCC(=O)N3CN(CN(C3)C(=O)CCSC[C@H](NC(C)=O)C(=O)N3CCC[C@H]3C(=O)N[C@@H](Cc3ccccc3)C(=O)NCC(=O)N2)C(=O)CCSC[C@@H](C(N)=O)NC(=O)[C@H](Cc2c[nH]c3ccccc23)NC1=O [BCY7661, Ac-(SEQ ID NO: 15)] (Ac-CPFGCMKDWSWPIWC-NH2; linker 1-5-15 via TATA; C-terminus assumed) | 29.4

Same assay, conditions: competition with fluorescent peptide SEQ ID NO: 217; read-out: Ki

Ki [nM] | Compound
21 | CC[C@H](C)[C@@H]1NC(=O)[C@H](CCCNC(=N)N)NC(=O)[C@H](CC(N)=O)NC(=O)[C@@H]2CSCCC(=O)N3CN(CN(C3)C(=O)CCSC[C@H](NC(=O)[C@H](Cc3c[nH]c4ccccc34)NC(=O)[C@H](C)NC(=O)[C@H](CCC(N)=O)NC(C)=O)C(=O)N[C@@H](C)C(=O)N3CCC[C@H]3C(=O)N[C@@H](CC(C)C)C(=O)N[C@@H](CO)C(=O)N[C@@H](CC(=O)O)C(=O)N[C@@H](Cc3ccc(O)cc3)C(=O)N[C@@H](Cc3c[nH]c4ccccc34)C(=O)N2)C(=O)CCSC[C@@H](C(N)=O)NC1=O [BCY7623, Ac-QAW-(SEQ ID NO: 34)] (Ac-QAWCAPLSDYWCNRIC-NH2; linker 4-12-16 via TATA; C-terminus assumed)
101 | CC[C@H](C)[C@@H]1NC(=O)[C@H](CCCNC(=N)N)NC(=O)[C@H](CC(N)=O)NC(=O)[C@@H]2CSCCC(=O)N3CN(CN(C3)C(=O)CCSC[C@H](NC(=O)[C@H](Cc3c[nH]c4ccccc34)NC(=O)[C@H](CCCCN)NC(=O)[C@H](CCC(N)=O)NC(C)=O)C(=O)N[C@@H](C)C(=O)N3CCC[C@H]3C(=O)N[C@@H](CC(C)C)C(=O)N[C@@H](C)C(=O)N[C@@H](CC(=O)O)C(=O)N[C@@H](Cc3ccc(O)cc3)C(=O)N[C@@H](Cc3c[nH]c4ccccc34)C(=O)N2)C(=O)CCSC[C@@H](C(N)=O)NC1=O [BCY7627, Ac-QKW-(SEQ ID NO: 104)] (Ac-QKWCAPLADYWCNRIC-NH2; linker 4-12-16 via TATA; C-terminus assumed)
19 | CC[C@H](C)[C@@H]1NC(=O)[C@H](CCCNC(=N)N)NC(=O)[C@H](C)NC(=O)[C@@H]2CSCCC(=O)N3CN(CN(C3)C(=O)CCSC[C@H](NC(=O)[C@H](Cc3c[nH]c4ccccc34)NC(=O)[C@H](CCCCN)NC(=O)[C@H](CCC(N)=O)NC(C)=O)C(=O)N[C@@H](C)C(=O)N3CCC[C@H]3C(=O)N[C@@H](CC(C)C)C(=O)N[C@@H](CO)C(=O)N[C@@H](CC(=O)O)C(=O)N[C@@H](Cc3ccc(O)cc3)C(=O)N[C@@H](Cc3c[nH]c4ccccc34)C(=O)N2)C(=O)CCSC[C@@H](C(N)=O)NC1=O [BCY7631, Ac-QKW-(SEQ ID NO: 106)] (Ac-QKWCAPLSDYWCARIC-NH2; linker 4-12-16 via TATA; C-terminus assumed)
123 | CC[C@H](C)[C@@H]1NC(=O)[C@H](C)NC(=O)[C@H](CC(N)=O)NC(=O)[C@@H]2CSCCC(=O)N3CN(CN(C3)C(=O)CCSC[C@H](NC(=O)[C@H](Cc3c[nH]c4ccccc34)NC(=O)[C@H](CCCCN)NC(=O)[C@H](CCC(N)=O)NC(C)=O)C(=O)N[C@@H](C)C(=O)N3CCC[C@H]3C(=O)N[C@@H](CC(C)C)C(=O)N[C@@H](CO)C(=O)N[C@@H](CC(=O)O)C(=O)N[C@@H](Cc3ccc(O)cc3)C(=O)N[C@@H](Cc3c[nH]c4ccccc34)C(=O)N2)C(=O)CCSC[C@@H](C(N)=O)NC1=O [BCY7632, Ac-QKW-(SEQ ID NO: 107)] (Ac-QKWCAPLSDYWCNAIC-NH2; linker 4-12-16 via TATA; C-terminus assumed)

Continued, compound first:

Compound | Ki [nM]
CC[C@H](C)[C@@H]1NC(=O)[C@@H]2CCCN2C(=O)[C@H](Cc2c[nH]c3ccccc23)NC(=O)[C@H](CO)NC(=O)[C@H](Cc2c[nH]c3ccccc23)NC(=O)[C@H](CC(N)=O)NC(=O)[C@H](CCCCN)NC(=O)[C@H](CCSC)NC(=O)[C@@H]2CSCCC(=O)N3CN(CN(C3)C(=O)CCSC[C@H](NC(C)=O)C(=O)NCC(=O)N[C@@H](Cc3ccccc3)C(=O)NCC(=O)N2)C(=O)CCSC[C@@H](C(N)=O)NC(=O)[C@H](Cc2c[nH]c3ccccc23)NC1=O [BCY7607, Ac-(SEQ ID NO: 94)] (Ac-CGFGCMKNWSWPIWC-NH2; linker 1-5-15 via TATA) | 77
CC[C@H](C)[C@@H]1NC(=O)[C@@H]2CCCN2C(=O)[C@H](Cc2c[nH]c3ccccc23)NC(=O)[C@H](CO)NC(=O)[C@H](Cc2c[nH]c3ccccc23)NC(=O)[C@H](CC(N)=O)NC(=O)[C@@H]2CCCN2C(=O)[C@H](CCSC)NC(=O)[C@@H]2CSCCC(=O)N3CN(CN(C3)C(=O)CCSC[C@H](NC(C)=O)C(=O)N3CCC[C@H]3C(=O)N[C@@H](Cc3ccccc3)C(=O)NCC(=O)N2)C(=O)CCSC[C@@H](C(N)=O)NC(=O)[C@H](Cc2c[nH]c3ccccc23)NC1=O [BCY7614, Ac-(SEQ ID NO: 99)] (Ac-CPFGCMPNWSWPIWC-NH2; linker 1-5-15 via TATA; C-terminus assumed) | 21
CC[C@H](C)[C@@H]1NC(=O)[C@H](CCCNC(=N)N)NC(=O)[C@H](CC(N)=O)NC(=O)[C@@H]2CSCCC(=O)N3CN(CN(C3)C(=O)CCSC[C@H](NC(=O)[C@H](Cc3c[nH]c4ccccc34)NC(=O)[C@H](CCCCN)NC(=O)[C@H](C)NC(C)=O)C(=O)N[C@@H](C)C(=O)N3CCC[C@H]3C(=O)N[C@@H](CC(C)C)C(=O)N[C@@H](CO)C(=O)N[C@@H](CC(=O)O)C(=O)N[C@@H](Cc3ccc(O)cc3)C(=O)N[C@@H](Cc3c[nH]c4ccccc34)C(=O)N2)C(=O)CCSC[C@@H](C(N)=O)NC1=O [BCY7622, Ac-AKW-(SEQ ID NO: 34)] (Ac-AKWCAPLSDYWCNRIC-NH2; linker 4-12-16 via TATA; C-terminus assumed) | 31
CC[C@H](C)[C@@H]1NC(=O)[C@H](CCCNC(=N)N)NC(=O)[C@H](CC(N)=O)NC(=O)[C@@H]2CSCCC(=O)N3CN(CN(C3)C(=O)CCSC[C@H](NC(=O)[C@H](C)NC(=O)[C@H](CCCCN)NC(=O)[C@H](CCC(N)=O)NC(C)=O)C(=O)N[C@@H](C)C(=O)N3CCC[C@H]3C(=O)N[C@@H](CC(C)C)C(=O)N[C@@H](CO)C(=O)N[C@@H](CC(=O)O)C(=O)N[C@@H](Cc3ccc(O)cc3)C(=O)N[C@@H](Cc3c[nH]c4ccccc34)C(=O)N2)C(=O)CCSC[C@@H](C(N)=O)NC1=O [BCY7624, Ac-QKA-(SEQ ID NO: 34)] (Ac-QKACAPLSDYWCNRIC-NH2; linker 4-12-16 via TATA; C-terminus assumed) | 571
CC[C@H](C)[C@@H]1NC(=O)[C@H](CCCNC(=N)N)NC(=O)[C@H](CC(N)=O)NC(=O)[C@@H]2CSCCC(=O)N3CN(CN(C3)C(=O)CCSC[C@H](NC(=O)[C@H](Cc3c[nH]c4ccccc34)NC(=O)[C@H](CCCCN)NC(=O)[C@H](CCC(N)=O)NC(C)=O)C(=O)N[C@@H](C)C(=O)N[C@@H](C)C(=O)N[C@@H](CC(C)C)C(=O)N[C@@H](CO)C(=O)N[C@@H](CC(=O)O)C(=O)N[C@@H](Cc3ccc(O)cc3)C(=O)N[C@@H](Cc3c[nH]c4ccccc34)C(=O)N2)C(=O)CCSC[C@@H](C(N)=O)NC1=O [BCY7625, Ac-QKW-(SEQ ID NO: 103)] (Ac-QKWCAALSDYWCNRIC-NH2; linker 4-12-16 via TATA; C-terminus assumed) | 141
CC[C@H](C)[C@@H]1NC(=O)[C@@H]2CCCN2C(=O)[C@H](Cc2c[nH]c3ccccc23)NC(=O)[C@H](CO)NC(=O)[C@H](Cc2c[nH]c3ccccc23)NC(=O)[C@H](CC(N)=O)NC(=O)[C@H](CO)NC(=O)[C@H](CCSC)NC(=O)[C@@H]2CSCCC(=O)N3CN(CN(C3)C(=O)CCSC[C@H](NC(C)=O)C(=O)N3CCC[C@H]3C(=O)N[C@@H](Cc3ccccc3)C(=O)NCC(=O)N2)C(=O)CCSC[C@@H](C(N)=O)NC(=O)[C@H](Cc2c[nH]c3ccccc23)NC1=O [BCY7658, Ac-(SEQ ID NO: 12)] (Ac-CPFGCMSNWSWPIWC-NH2; linker 1-5-15 via TATA; C-terminus assumed) | 33.6
CC[C@H](C)[C@@H]1NC(=O)[C@@H]2CCCN2C(=O)[C@H](Cc2c[nH]c3ccccc23)NC(=O)[C@H](CO)NC(=O)[C@H](Cc2c[nH]c3ccccc23)NC(=O)[C@H](CC(N)=O)NC(=O)[C@H](CC(=O)O)NC(=O)[C@H](CCSC)NC(=O)[C@@H]2CSCCC(=O)N3CN(CN(C3)C(=O)CCSC[C@H](NC(C)=O)C(=O)N3CCC[C@H]3C(=O)N[C@@H](Cc3ccccc3)C(=O)NCC(=O)N2)C(=O)CCSC[C@@H](C(N)=O)NC(=O)[C@H](Cc2c[nH]c3ccccc23)NC1=O [BCY7659, Ac-(SEQ ID NO: 13)] (Ac-CPFGCMDNWSWPIWC-NH2; linker 1-5-15 via TATA; C-terminus assumed) | 77.9
CC[C@H](C)[C@@H]1NC(=O)[C@@H]2CCCN2C(=O)[C@H](Cc2c[nH]c3ccccc23)NC(=O)[C@H](CO)NC(=O)[C@H](Cc2c[nH]c3ccccc23)NC(=O)[C@H](CC(N)=O)NC(=O)[C@H](CCCCNC(=N)N)NC(=O)[C@H](CCSC)NC(=O)[C@@H]2CSCCC(=O)N3CN(CN(C3)C(=O)CCSC[C@H](NC(C)=O)C(=O)N3CCC[C@H]3C(=O)N[C@@H](Cc3ccccc3)C(=O)NCC(=O)N2)C(=O)CCSC[C@@H](C(N)=O)NC(=O)[C@H](Cc2c[nH]c3ccccc23)NC1=O [BCY7660, Ac-(SEQ ID NO: 59)] | 26.2
